Measurements from patent US10828288B2, “Hydrazone derivatives for the treatment of cancer” (RUTGERS, THE STATE UNIVERSITY OF NEW JERSEY, priority 2015, dated 2020).

What was measured:
[1] = Liposome import assay (RZ-3 fluorescence); assay type: physicochemical; settings: for change of RZ-3 fluorescence with reversed [Zn2+]free gradient: large excess of EDTA outside the liposomes, ZMC1 added subsequently; for shuttling of Zn2+ into liposomes: external [Zn2+]free 10 μM
Protocol: DOPC-liposomes were prepared by film rehydration and extrusion followed by gel filtration and diluted to an OD600=0.06 in buffer. The size distribution of the liposomes was determined by dynamic light scattering (DLS) using a Malvern Zetasizer Nano ZS. Fluorescence measurements were taken on a Horiba Fluoromax-4 spectrofluorimeter in a 5×5 mm quartz cuvette with λex/λcm=550/572 nm for RZ-3 and 490/515 nm for calcein. Initial Zn^2+ import/export was quantified by fitting the first 10-30 s of data after each treatment to a line and converted to units of flux using the following Eqn 1:
[formula] where Ji is the initial flux, ΔF/Δt is the slope of the fit line, Fmax is RZ-3 fluorescence in the presence of saturating Zn^2+ and 1% TritonX-100, Fmin is RZ-3 fluorescence in the presence of excess EDTA and 1% TritonX-100, [RZ3] is the concentration of encapsulated RZ-3, and SA/Vol is the surface area to volume ratio calculated assuming hollow spheres of the mean diameter determined by DLS. Intracellular [Zn^2+]free Imaging TOV112D or HEK293 cells (40,000 cells/well) were plated on either 8-well BD Falcon chambered culture slides (Corning Life Sciences) or 8-chambered #1.5 Nunc Lab-Tek II chambered coverglasses (Thermo Scientific) treated with poly-L-lysine. After 48 h, cells were washed 2×5 m in serum-free media and incubated with 1 μM FZ3-AM for 40 m at 37° C. Cells were then washed 2×5 m in either EBSS/H (−)Ca/Mg or phenol-red free DMEM+10% FBS containing the indicated treatments for 20 m before imaging. For nuclear colocalization, 1 μg/mL Hoechst 33342 was also included. Cells were imaged using a Zeiss LSM510 META NLO confocal microscope equipped with 37° C. environmental control chamber. FZ3 and Hoechst 33342 were excited at 488 nm (argon laser) and 790 nm (Chameleon Ti:sapphire laser), respectively. To determine the kinetics of fluorescence change, each background-subtracted image in the time-lapse series was integrated in ImageJ and normalized to the integrated fluorescence of the first frame after treatment. For quantification of intracellular [Zn^2+]free, each cell was analyzed in the treated, 50 μM PYR/ZnCl2 (1:1), and 100 μM TPEN images by taking the mean fluorescence of an ROI inside the cell subtracted by an ROI immediately outside the cell measured in ImageJ. The [Zn^2+]free for each cell was then calculated by Eqn 2: […]

[2] = test system: H460 (p53-WT); assay: Cell growth inhibition assay, H460; assay type: cell-based, human; settings: three day assay, H460, FIG. 1
[3] = test system: H1299 (p53-null); assay: Cell growth inhibition assay, H1299; assay type: cell-based, human; settings: three day assay, H1299, FIG. 1
[4] = test system: HEK293 (non-cancer, p53-WT) cells; assay: Intracellular [Zn2+]free imaging with FluoZin-3-AM, HEK293; assay type: cell-based; settings: for increase of intracellular [Zn2+]free (FZ3-AM fluorescence): HEK293, complete media, confocal microscopy
Protocol: To minimize the potential for Zn^2+ contamination and contributions from poorly defined elements in complete media (e.g. FBS), cells were treated and imaged in Ca^2+ and Mg^2+-free Earle's Balanced Salt Solution supplemented with 10 mM HEPES pH 7.4 (EBSS/H (−)Ca/Mg). Excess ZnCl2 with the Zn^2+ ionophore pyrithione (PYR) was used as a positive control. Excess membrane-permeable Zn^2+ chelator N,N,N′,N′-tetrakis(2-pyridylmethyl)ethane-1,2-diamine (TPEN) was used as a negative control.
To normalize for differential dye loading, cells were then sequentially treated with excess PYR/ZnCl2, imaged, treated with TPEN, and imaged again. PYR/ZnCl2 and TPEN served to saturate and apoize the intracellular FZ3, respectively.
[formula] where Ji is the initial flux, ΔF/Δt is the slope of the fit line, Fmax is RZ-3 fluorescence in the presence of saturating Zn^2+ and 1% TritonX-100, Fmin is RZ-3 fluorescence in the presence of excess EDTA and 1% TritonX-100, [RZ3] is the concentration of encapsulated RZ-3, and SA/Vol is the surface area to volume ratio calculated assuming hollow spheres of the mean diameter determined by DLS. Intracellular [Zn^2+]free Imaging TOV112D or HEK293 cells (40,000 cells/well) were plated on either 8-well BD Falcon chambered culture slides (Corning Life Sciences) or 8-chambered #1.5 Nunc Lab-Tek II chambered coverglasses (Thermo Scientific) treated with poly-L-lysine. After 48 h, cells were washed 2×5 m in serum-free media and incubated with 1 μM FZ3-AM for 40 m at 37° C. Cells were then washed 2×5 m in either EBSS/H (−)Ca/Mg or phenol-red free DMEM+10% FBS containing the indicated treatments for 20 m before imaging. For nuclear colocalization, 1 μg/mL Hoechst 33342 was also included. Cells were imaged using a Zeiss LSM510 META NLO confocal microscope equipped with 37° C. environmental control chamber. FZ3 and Hoechst 33342 were excited at 488 nm (argon laser) and 790 nm (Chameleon Ti:sapphire laser), respectively. To determine the kinetics of fluorescence change, each background-subtracted image in the time-lapse series was integrated in ImageJ and normalized to the integrated fluorescence of the first frame after treatment. For quantification of intracellular [Zn^2+]free, each cell was analyzed in the treated, 50 μM PYR/ZnCl2 (1:1), and 100 μM TPEN images by taking the mean fluorescence of an ROI inside the cell subtracted by an ROI immediately outside the cell measured in ImageJ. The [Zn^2+]free for each cell was then calculated by Eqn 2:
[formula] […] To minimize the effects of outliers the lowest and highest 5% of cells in each series were rejected, and the remaining values averaged to give the value from that experiment. The number of cells analyzed in each trial ranged from 54-163. For nuclear colocalization, treated, PYR/ZnCl2, and TPEN treated images costained with Hoechst 33342 were aligned and each pixel subjected to Eqn. 2 in MATLAB (MathWorks).

For `O=C(O)CN(CCN(CC(=O)O)CC(=O)O)CC(=O)O` [EDTA], the “ability to cross liposomal (or cellular) membranes” value (“ability to cross liposomal” below) [1] was “impermeable” and the “change of RZ-3 fluorescence with reversed [Zn2+]free gradient” value [1] was “did not cause a significant decrease”.
For `C/C(=N\Nc1nc2ccccc2s1)c1ccccn1` [Example 1, (E)-2-(2-(1-(pyridin-2-yl)ethylidene)hydrazinyl)benzo[d]thiazole], the “cell growth inhibition of p53 wildtype cell line” value [2] was “undisturbed” and the “cell growth inhibition of p53 null cell line” value [3] was “undisturbed”.
In the case of `C/C(=N\Nc1nc2ccccc2o1)c1ccccn1` [Example 2, (E)-2-(2-(1-(pyridin-2-yl)ethylidene)hydrazinyl)benzo[d]oxazole], the “cell growth inhibition of p53 wildtype cell line” value [2] is reported as “undisturbed” and the “cell growth inhibition of p53 null cell line” value [3] is reported as “undisturbed”.
With `C/C(=N\NC(=O)N1CCC1)c1ccccn1` [Example A6] the “increase of intracellular [Zn2+]free (FZ3-AM fluorescence)” value [4] was “did not” and the “shuttling of Zn2+ into liposomes” value [1] was “shuttled Zn^2+ into the liposomes”.
With `O=C(O)CN(CC(=O)O)CC(=O)O` [NTA] the “increase of intracellular [Zn2+]free (FZ3-AM fluorescence)” value [4] was “did not”, the “ability to cross liposomal” value [1] was “cannot cross” and the “shuttling of Zn2+ into liposomes” value [1] was “did not”.
For `C/C(=N\NC(=S)N1CCC1)c1ccccn1` [ZMC1], the “steady-state intracellular [Zn2+]free” value ([4]; HEK293, 1 μM ZMC1 and 0.5 μM ZnCl2 in EBSS/H (−)Ca/Mg) was 18.1 ± 4.7 nM, the “increase of intracellular [Zn2+]free, compound alone” value ([4]; HEK293, EBSS/H (−)Ca/Mg, ZMC1 alone without ZnCl2) was “neither cell type showed an increase” and the “increase of intracellular [Zn2+]free, with ZnCl2” value ([4]; HEK293, EBSS/H (−)Ca/Mg, ZMC1 and ZnCl2, two ZnCl2 concentrations) was “time dependent increase”. For the same molecule, the “increase of intracellular [Zn2+]free (FZ3-AM fluorescence)” value [4] was “increased”, the “ability to cross liposomal” value [1] was “crossed the liposomal membranes” and the “change of RZ-3 fluorescence with reversed [Zn2+]free gradient” value [1] was “time dependent decrease”.
